Experimental findings from patent US12060347B2 (BRISTOL-MYERS SQUIBB COMPANY, priority 2016, dated 2024) are described below.

pIC50: −log10 of the molar value.

This experiment deals with T1, human PAR4 (Homo sapiens, UniProt Q96RI0).
T1 construct: expressed in transfected cells; host or cells: HEK293 PAR4 Clone 1.2A (BMS Arctic ID 383940)
T1 sequence (Q96RI0 18-385): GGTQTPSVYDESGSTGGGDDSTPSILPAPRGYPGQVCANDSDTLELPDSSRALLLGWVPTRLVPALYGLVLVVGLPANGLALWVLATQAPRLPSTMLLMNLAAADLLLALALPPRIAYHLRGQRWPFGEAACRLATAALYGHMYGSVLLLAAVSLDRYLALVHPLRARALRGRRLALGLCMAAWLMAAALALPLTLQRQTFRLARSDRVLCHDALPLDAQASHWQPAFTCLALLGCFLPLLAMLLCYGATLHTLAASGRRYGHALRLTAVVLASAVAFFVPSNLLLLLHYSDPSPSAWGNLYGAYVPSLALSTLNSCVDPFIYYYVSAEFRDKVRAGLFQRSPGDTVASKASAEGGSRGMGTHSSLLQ
In words: PAR4 FLIPR assay: antagonism of agonist-peptide-induced calcium mobilization in PAR4-expressing HEK293 cells. Type of experiment: cell-based. To be noted: H-Ala-Phe(4-F)-[…]NH2-induced intracellular calcium mobilization, 11-point curves. A general note: A change in cytosolic calcium serves as a functional read-out for many receptors and channels.
Regarding `COc1cnc2c(-c3nc4c(C)cc(OC)nc4s3)cc(C)cc2n1` [Example 179, 5-methoxy-2-(2-methoxy-7-methylquinoxalin-5-yl)-7-methylthiazolo[5,4-b]pyridine], the pIC50 was 7.74.

For the compound `COCc1cnc2c(-c3nc4cc(F)c(OC)nc4s3)cc(C)cc2n1` [Example 180, 6-fluoro-5-methoxy-2-(2-(methoxymethyl)-7-methylquinoxalin-5-yl)thiazolo[5,4-b] pyridine], the pIC50 was 8.57.

On to `COCc1cnc2c(-c3nc4c(C)cc(OC)nc4s3)cc(C)cc2n1` [Example 181, 5-methoxy-2-(2-(methoxymethyl)-7-methylquinoxalin-5-yl)-7-methylthiazolo[5,4-b] pyridine], for which the pIC50 is 8.92.

For `COc1cnc2c(-c3nc4cc(F)c(OC)nc4s3)cc(C)cc2n1` [Example 182, 6-fluoro-5-methoxy-2-(2-methoxy-7-methylquinoxalin-5-yl)thiazolo[5,4-b]pyridine], the pIC50 was 7.66.

As to `COCc1cnc2c(-c3nc4c(C)cc(OC)cc4s3)cc(C)cc2n1` [Example 183, 6-methoxy-2-(2-(methoxymethyl)-7-methylquinoxalin-5-yl)-4-methylbenzo[d]thiazole], the negative logarithm of the IC50 (pIC50) was 9.22.

Turning to `COC(C)c1cnc2c(-c3cc4ccccc4o3)cc(C)cc2n1` (stereo not shown) [Example 184, 5-(benzofuran-2-yl)-2-(1-methoxyethyl)-7-methylquinoxaline], the pIC50 was 5.64.

In the case of `COCc1cnc2c(-c3nc4c(C)cc(OC)cc4s3)cc(C)cc2c1` [Example 185, 6-methoxy-2-(3-(methoxymethyl)-6-methylquinolin-8-yl)-4-methylbenzo[d]thiazole], the pIC50 is 8.19.

`COc1cc(C)c2nc(-c3cc(C)cc4nc(C(F)(F)OC)cnc34)sc2c1` [Example 186, 2-(2-(difluoro(methoxy)methyl)-7-methylquinoxalin-5-yl)-6-methoxy-4-methylbenzo[d]thiazole]: the pIC50 was 7.77.

On to `COc1cc(C)c2nc(-c3cc(C)cc4nc(COc5ccccc5)cnc34)sc2c1` [Example 187, 6-methoxy-4-methyl-2-(7-methyl-2-(phenoxymethyl)quinoxalin-5-yl)benzo[d]thiazole], for which the pIC50 is 6.41.

Regarding `COc1cc(C)c2nc(-c3cc(C)cc4nc(CN(C)C)cnc34)sc2c1` [Example 188, 1-(5-(6-methoxy-4-methylbenzo[d]thiazol-2-yl)-7-methylquinoxalin-2-yl)-N,N-dimethylmethanamine], the negative-log IC50 (pIC50) is 6.24.

For the compound `CCOCc1cnc2c(-c3nc4c(C)cc(OC)cc4s3)cc(C)cc2n1` [Example 189, 2-(2-(ethoxymethyl)-7-methylquinoxalin-5-yl)-6-methoxy-4-methylbenzo[d]thiazole], the pIC50 is 6.85.

With `COCc1cnc2c(-c3nc4c(C)cc(OC)cc4s3)cc(C)cc2c1OC` [Example 190, 6-methoxy-2-(4-methoxy-3-(methoxymethyl)-6-methylquinolin-8-yl)-4-methylbenzo[d]thiazole], the pIC50 is 5.77.

Regarding `COCc1cnc2c(-c3nc4c(C)cc(Cl)nc4s3)cc(C)cc2n1` [Example 191, 5-chloro-2-(2-(methoxymethyl)-7-methylquinoxalin-5-yl)-7-methylthiazolo[5,4-b] pyridine], the pIC50 is 8.19.

Regarding `COCc1cnc2c(-c3nc4c(CO)cc(OC)nc4s3)cc(C)cc2n1` [Example 192, (5-methoxy-2-(2-(methoxymethyl)-7-methylquinoxalin-5-yl)thiazolo[5,4-b]pyridin-7-yl) methanol], the pIC50 was 8.55.

With `COCc1cnc2c(-c3nc4c(C)cc(OCCNS(=O)(=O)c5ccc(F)cc5)nc4s3)cc(C)cc2n1` [Example 193, 4-fluoro-N-(2-((2-(2-(methoxymethyl)-7-methylquinoxalin-5-yl)-7-methylthiazolo[5,4-b]pyridin-5-yl)oxy)ethyl)benzenesulfonamide], the pIC50 was 8.92.

For `COc1cnc2c(-c3nc4c(C)cc(OCCNS(=O)(=O)c5ccc(F)cc5)nc4s3)cc(C)cc2n1` [Example 194, 4-fluoro-N-(2-((2-(2-methoxy-7-methylquinoxalin-5-yl)-7-methylthiazolo[5,4-b]pyridin-5-yl)oxy)ethyl)benzenesulfonamide], the pIC50 is 8.60.

With `COCc1cnc2c(-c3cc4ccccc4o3)cc(C)cc2n1` [Example 195, 5-(benzofuran-2-yl)-2-(methoxymethyl)-7-methylquinoxaline], the pIC50 is 7.49.

Turning to `COc1cnc2c(-c3nc4c(C)cc(OCCOC(=O)Nc5cccnc5)nc4s3)cc(C)cc2n1` [Example 196, 2-((2-(2-methoxy-7-methylquinoxalin-5-yl)-7-methylthiazolo[5,4-b]pyridin-5-yl)oxy)ethyl pyridin-3-ylcarbamate], the pIC50 was 8.64.

On to `COc1cnc2c(-c3nc4c(C)cc(OCCOC(=O)Nc5ccc(C#N)nc5)nc4s3)cc(C)cc2n1` [Example 197, 2-((2-(2-methoxy-7-methylquinoxalin-5-yl)-7-methylthiazolo[5,4-b]pyridin-5-yl)oxy)ethyl (6-cyanopyridin-3-yl)carbamate], for which the pIC50 was 8.89.

With `COc1cnc2c(-c3nc4cc(F)c(OCCOC(=O)Nc5ccc(C#N)nc5)nc4s3)cc(C)cc2n1` [Example 198, 2-((6-fluoro-2-(2-methoxy-7-methylquinoxalin-5-yl)thiazolo[5,4-b]pyridin-5-yl)oxy)ethyl (6-cyanopyridin-3-yl)carbamate], the negative logarithm of the IC50 (pIC50) was 9.22.

On to `COc1cnc2c(-c3nc4c(C)cc(OCCNS(=O)(=O)c5ccc(F)cc5)cc4s3)cc(Cl)cc2n1` [Example 199, N-(2-((2-(7-chloro-2-methoxyquinoxalin-5-yl)-4-methylbenzo[d]thiazol-6-yl)oxy)ethyl)-4-fluorobenzenesulfonamide], for which the pIC50 is 8.60.

Take `COCc1cnc2c(-c3nc4c(C)cc(OCCNS(=O)(=O)c5ccc(F)cc5)cc4s3)cc(Cl)cc2n1` [Example 200, N-(2-((2-(7-chloro-2-(methoxymethyl)quinoxalin-5-yl)-4-methylbenzo[d]thiazol-6-yl)oxy)ethyl)-4-fluorobenzenesulfonamide]: the pIC50 is 8.80.

With `COCc1cnc2c(-c3nc4ccc(OC)cc4s3)cc(Cl)cc2n1` [Example 201, 2-(7-chloro-2-(methoxymethyl)quinoxalin-5-yl)-6-methoxybenzo[d]thiazole], the pIC50 was 8.89.

Regarding `COCc1cnc2c(-c3nc4ccc(OC)cc4s3)cc(Cl)cc2n1` [Example 202, 2-(7-chloro-2-(methoxymethyl)quinoxalin-5-yl)-6-methoxybenzo[d]thiazole], the pIC50 was 9.05.

With `COCc1cnc2c(-c3nc4c(C)cc(OC)cc4s3)cc(OC(F)(F)F)cc2n1` [Example 203, 6-methoxy-2-(2-(methoxymethyl)-7-(trifluoromethoxy)quinoxalin-5-yl)-4-methylbenzo[d] thiazole], the pIC50 is 8.39.

As to `COCc1cnc2c(-c3nc4c(C)cc(OC)cc4s3)cc(C(=O)OC)cc2n1` [Example 204, methyl 8-(6-methoxy-4-methylbenzo[d]thiazol-2-yl)-3-(methoxymethyl) quinoxaline-6-carboxylate], the pIC50 was 8.51.

Turning to `COCc1cnc2c(-c3nc4c(C)cc(OCCNS(=O)(=O)c5ccc(F)cc5)cc4s3)cc(C(=O)OC)cc2n1` [Example 205, methyl 8-(6-(2-(4-fluorophenylsulfonamido)ethoxy)-4-methylbenzo[d]thiazol-2-yl)-3-(methoxymethyl)quinoxaline-6-carboxylate], the pIC50 is 7.29.

On to `COCc1cnc2c(-c3nc4c(C)cc(OC)cc4s3)cc(F)cc2n1` [Example 206, 2-(7-fluoro-2-(methoxymethyl)quinoxalin-5-yl)-6-methoxy-4-methylbenzo[d]thiazole], for which the pIC50 was 9.15.

For `COCc1cnc2c(-c3nc4c(C)cc(OCCNS(=O)(=O)c5ccc(F)cc5)cc4s3)cc(F)cc2n1` [Example 207, 4-fluoro-N-(2-((2-(7-fluoro-2-(methoxymethyl)quinoxalin-5-yl)-4-methylbenzo[d]thiazol-6-yl)oxy)ethyl)benzenesulfonamide], the pIC50 is 9.05.

Regarding `COCc1cnc2c(-c3nc4c(C)cc(OC)cc4s3)cc(C(F)(F)F)cc2n1` [Example 208, 6-methoxy-2-(2-(methoxymethyl)-7-(trifluoromethyl)quinoxalin-5-yl)-4-methylbenzo[d]thiazole], the pIC50 is 8.96.

Take `COCc1cnc2c(-c3nc4c(C)cc(OCCNS(=O)(=O)c5ccc(F)cc5)cc4s3)cc(C(F)(F)F)cc2n1` [Example 209, 4-fluoro-N-(2-((2-(2-(methoxymethyl)-7-(trifluoromethyl)quinoxalin-5-yl)-4-methylbenzo[d]thiazol-6-yl)oxy)ethyl)benzenesulfonamide]: the pIC50 was 8.96.

Consider `COCc1cnc2c(-c3nc4c(Cl)cc(OC)cc4s3)cc(Cl)cc2n1` [Example 210, 4-chloro-2-(7-chloro-2-(methoxymethyl)quinoxalin-5-yl)-6-methoxybenzo[d]thiazole], for which the pIC50 was 9.52.

In the case of `COc1cc(C)c2nc(-c3cc(C#N)cc4nc(OC)cnc34)sc2c1` [Example 211, 3-methoxy-8-(6-methoxy-4-methylbenzo[d]thiazol-2-yl)quinoxaline-6-carbonitrile], the pIC50 was 7.68.

With `COCc1cnc2c(-c3nc4c(Cl)cc(OC)cc4s3)cccc2n1` [Example 212, 4-chloro-6-methoxy-2-(2-(methoxymethyl)quinoxalin-5-yl)benzo[d]thiazole], the pIC50 was 8.62.

One may read the pIC50 as the negative decadic logarithm of the IC50, by convention in mol/L.
